# Experimental data: PubChem BioAssay AID256 (DTP/NCI, 2004)
# Values joined by “and” are separate entries in the source; they are usually repeats but may differ in a detail not shown here. Identical values can stand only once. Inconclusive results and toxic doses are left out.
# System: CD2F1 mice, L1210 leukemia ip, survival T/C
# Assay: NCI In Vivo Anticancer Drug Screen. Data for tumor model L1210 Leukemia (intraperitoneal) in CD2F1 (CDF1) mice
# Conditions: higher = longer survival
# Outline: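 Mice carrying a transplanted tumor received test compound or vehicle alone. The value is the measurement in the treated group divided by that in the vehicle-treated control group.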
structure (smiles),measurement,setting,value
COc1cc(NS(C)(=O)=O)ccc1Nc1c2ccccc2nc2ccccc12,T/C,"endpoint: mean survival time, dose: 1.0 mg/kg/injection, schedule: Q01DX009 (ip), vehicle: saline",110 % of control
same,T/C,"endpoint: mean survival time, dose: 1.0 mg/kg/injection, schedule: Q01DX009 (sc), vehicle: saline",101 % of control
same,T/C,"endpoint: mean survival time, dose: 1.8 mg/kg/injection, schedule: Q01DX009 (ip), vehicle: other",185 % of control
same,T/C,"endpoint: mean survival time, dose: 2.0 mg/kg/injection, schedule: Q01DX009 (sc), vehicle: saline",104 % of control
same,T/C,"endpoint: mean survival time, dose: 2.0 mg/kg/injection, schedule: Q03HX008 (ip), vehicle: saline",150 % of control
same,T/C,"endpoint: mean survival time, dose: 2.0 mg/kg/injection, schedule: Q03HX024 (ip), vehicle: saline",151 % of control
same,T/C,"endpoint: mean survival time, dose: 3.75 mg/kg/injection, schedule: Q01DX009 (ip), vehicle: other",173 % of control and 174 % of control
same,T/C,"endpoint: mean survival time, dose: 3.75 mg/kg/injection, schedule: Q04DX003 (ip), vehicle: other",98 % of control
same,T/C,"endpoint: mean survival time, dose: 4.0 mg/kg/injection, schedule: Q01DX009 (ip), vehicle: saline",155 % of control and 218 % of control and 161 % of control
same,T/C,"endpoint: mean survival time, dose: 4.0 mg/kg/injection, schedule: Q01DX009 (oral), vehicle: saline",102 % of control
same,T/C,"endpoint: mean survival time, dose: 4.0 mg/kg/injection, schedule: Q01DX009 (sc), vehicle: saline",113 % of control
same,T/C,"endpoint: mean survival time, dose: 4.0 mg/kg/injection, schedule: Q03HX008 (ip), vehicle: saline",164 % of control
same,T/C,"endpoint: mean survival time, dose: 4.0 mg/kg/injection, schedule: Q03HX016 (ip), vehicle: saline",346 % of control
same,T/C,"endpoint: mean survival time, dose: 4.0 mg/kg/injection, schedule: Q03HX024 (ip), vehicle: saline",122 % of control
same,T/C,"endpoint: mean survival time, dose: 7.5 mg/kg/injection, schedule: Q01DX009 (ip), vehicle: other",91 % of control and 93 % of control
same,T/C,"endpoint: mean survival time, dose: 7.5 mg/kg/injection, schedule: Q04DX003 (ip), vehicle: other",150 % of control
same,T/C,"endpoint: mean survival time, dose: 8.0 mg/kg/injection, schedule: Q01DX009 (oral), vehicle: saline",113 % of control
same,T/C,"endpoint: mean survival time, dose: 8.0 mg/kg/injection, schedule: Q03HX008 (ip), vehicle: saline",86 % of control
same,T/C,"endpoint: mean survival time, dose: 8.0 mg/kg/injection, schedule: Q03HX016 (ip), vehicle: saline",93 % of control
same,T/C,"endpoint: mean survival time, dose: 15.0 mg/kg/injection, schedule: Q01DX001 (ip), vehicle: other",154 % of control
same,T/C,"endpoint: mean survival time, dose: 15.0 mg/kg/injection, schedule: Q04DX003 (ip), vehicle: other",124 % of control and 221 % of control
same,T/C,"endpoint: mean survival time, dose: 16.0 mg/kg/injection, schedule: Q01DX001 (sc), vehicle: saline",112 % of control
same,T/C,"endpoint: mean survival time, dose: 16.0 mg/kg/injection, schedule: Q01DX009 (oral), vehicle: saline",102 % of control
same,T/C,"endpoint: mean survival time, dose: 16.0 mg/kg/injection, schedule: Q01DX009 (sc), vehicle: saline",101 % of control
same,T/C,"endpoint: mean survival time, dose: 16.0 mg/kg/injection, schedule: Q04DX003 (ip), vehicle: saline",150 % of control
same,T/C,"endpoint: mean survival time, dose: 32.0 mg/kg/injection, schedule: Q01DX001 (sc), vehicle: saline",117 % of control
same,T/C,"endpoint: mean survival time, dose: 32.0 mg/kg/injection, schedule: Q01DX009 (oral), vehicle: saline",93 % of control
same,T/C,"endpoint: mean survival time, dose: 32.0 mg/kg/injection, schedule: Q04DX003 (ip), vehicle: saline",153 % of control
same,T/C,"endpoint: mean survival time, dose: 64.0 mg/kg/injection, schedule: Q01DX001 (oral), vehicle: saline",109 % of control
same,T/C,"endpoint: mean survival time, dose: 64.0 mg/kg/injection, schedule: Q01DX001 (sc), vehicle: saline",119 % of control
same,T/C,"endpoint: mean survival time, dose: 64.0 mg/kg/injection, schedule: Q08DX002 (ip), vehicle: saline",154 % of control
same,T/C,"endpoint: mean survival time, dose: 128.0 mg/kg/injection, schedule: Q01DX001 (ip), vehicle: saline",92 % of control
same,T/C,"endpoint: mean survival time, dose: 128.0 mg/kg/injection, schedule: Q01DX001 (oral), vehicle: saline",114 % of control
same,T/C,"endpoint: mean survival time, dose: 128.0 mg/kg/injection, schedule: Q01DX001 (sc), vehicle: saline",117 % of control
same,T/C,"endpoint: mean survival time, dose: 256.0 mg/kg/injection, schedule: Q01DX001 (oral), vehicle: saline",104 % of control
same,T/C,"endpoint: mean survival time, dose: 256.0 mg/kg/injection, schedule: Q01DX001 (sc), vehicle: saline",118 % of control
same,T/C,"endpoint: mean survival time, dose: 512.0 mg/kg/injection, schedule: Q01DX001 (oral), vehicle: saline",112 % of control
same,T/C,"endpoint: median survival time, dose: 0.25 mg/kg/injection, schedule: Q01DX009 (sc), vehicle: other",112 % of control
same,T/C,"endpoint: median survival time, dose: 0.25 mg/kg/injection, schedule: Q03HX016 (ip), vehicle: other",118 % of control
same,T/C,"endpoint: median survival time, dose: 0.5 mg/kg/injection, schedule: Q01DX009 (sc), vehicle: other",112 % of control
same,T/C,"endpoint: median survival time, dose: 1.0 mg/kg/injection, schedule: Q01DX009 (ip), vehicle: saline with Tween-80",165 % of control
same,T/C,"endpoint: median survival time, dose: 1.0 mg/kg/injection, schedule: Q01DX009 (oral), vehicle: other",100 % of control
same,T/C,"endpoint: median survival time, dose: 1.0 mg/kg/injection, schedule: Q01DX009 (sc), vehicle: other",112 % of control
same,T/C,"endpoint: median survival time, dose: 1.0 mg/kg/injection, schedule: Q03HX008 (ip), vehicle: other",162 % of control
same,T/C,"endpoint: median survival time, dose: 1.0 mg/kg/injection, schedule: Q03HX016 (ip), vehicle: other",150 % of control
same,T/C,"endpoint: median survival time, dose: 1.0 mg/kg/injection, schedule: Q03HX024 (ip), vehicle: other",175 % of control
same,T/C,"endpoint: median survival time, dose: 2.0 mg/kg/injection, schedule: Q01DX001 (ip), vehicle: other",118 % of control
same,T/C,"endpoint: median survival time, dose: 2.0 mg/kg/injection, schedule: Q01DX001 (sc), vehicle: other",112 % of control
same,T/C,"endpoint: median survival time, dose: 2.0 mg/kg/injection, schedule: Q01DX009 (ip), vehicle: other",150 % of control and 161 % of control
same,T/C,"endpoint: median survival time, dose: 2.0 mg/kg/injection, schedule: Q01DX009 (oral), vehicle: other",100 % of control
same,T/C,"endpoint: median survival time, dose: 2.0 mg/kg/injection, schedule: Q03HX008 (ip), vehicle: other",181 % of control
same,T/C,"endpoint: median survival time, dose: 2.0 mg/kg/injection, schedule: Q03HX016 (ip), vehicle: other",181 % of control
same,T/C,"endpoint: median survival time, dose: 2.0 mg/kg/injection, schedule: Q04DX003 (ip), vehicle: other",120 % of control
same,T/C,"endpoint: median survival time, dose: 2.59 mg/kg/injection, schedule: Q04DX003 (ip), vehicle: other",124 % of control
same,T/C,"endpoint: median survival time, dose: 4.0 mg/kg/injection, schedule: Q01DX001 (sc), vehicle: other",112 % of control
same,T/C,"endpoint: median survival time, dose: 4.0 mg/kg/injection, schedule: Q01DX009 (ip), vehicle: other",193 % of control and 200 % of control
same,T/C,"endpoint: median survival time, dose: 4.0 mg/kg/injection, schedule: Q01DX009 (ip), vehicle: saline with Tween-80",151 % of control (2×) and 163 % of control
same,T/C,"endpoint: median survival time, dose: 4.0 mg/kg/injection, schedule: Q01DX009 (oral), vehicle: other",112 % of control
same,T/C,"endpoint: median survival time, dose: 4.0 mg/kg/injection, schedule: Q01DX009 (sc), vehicle: other",150 % of control
same,T/C,"endpoint: median survival time, dose: 8.0 mg/kg/injection, schedule: Q01DX001 (oral), vehicle: other",112 % of control
same,T/C,"endpoint: median survival time, dose: 8.0 mg/kg/injection, schedule: Q01DX001 (sc), vehicle: other",112 % of control
same,T/C,"endpoint: median survival time, dose: 8.0 mg/kg/injection, schedule: Q01DX009 (ip), vehicle: other",87 % of control and 88 % of control
same,T/C,"endpoint: median survival time, dose: 8.0 mg/kg/injection, schedule: Q01DX009 (oral), vehicle: other",150 % of control
same,T/C,"endpoint: median survival time, dose: 8.0 mg/kg/injection, schedule: Q01DX009 (sc), vehicle: other",112 % of control
same,T/C,"endpoint: median survival time, dose: 8.0 mg/kg/injection, schedule: Q04DX003 (ip), vehicle: other",181 % of control
same,T/C,"endpoint: median survival time, dose: 8.0 mg/kg/injection, schedule: Q08DX002 (ip), vehicle: other",156 % of control
same,T/C,"endpoint: median survival time, dose: 12.0 mg/kg/injection, schedule: Q04DX003 (ip), vehicle: other",186 % of control
same,T/C,"endpoint: median survival time, dose: 16.0 mg/kg/injection, schedule: Q01DX009 (ip), vehicle: other",90 % of control
same,T/C,"endpoint: median survival time, dose: 16.0 mg/kg/injection, schedule: Q01DX009 (oral), vehicle: other",87 % of control
same,T/C,"endpoint: median survival time, dose: 16.0 mg/kg/injection, schedule: Q01DX009 (sc), vehicle: other",87 % of control
same,T/C,"endpoint: median survival time, dose: 16.0 mg/kg/injection, schedule: Q04DX003 (ip), vehicle: other",150 % of control and 175 % of control
same,T/C,"endpoint: median survival time, dose: 16.0 mg/kg/injection, schedule: Q08DX002 (ip), vehicle: other",175 % of control
same,T/C,"endpoint: median survival time, dose: 20.0 mg/kg/injection, schedule: Q04DX003 (ip), vehicle: other",98 % of control
same,T/C,"endpoint: median survival time, dose: 32.0 mg/kg/injection, schedule: Q04DX003 (ip), vehicle: other",106 % of control
same,T/C,"endpoint: median survival time, dose: 64.0 mg/kg/injection, schedule: Q01DX001 (oral), vehicle: other",150 % of control
same,T/C,"endpoint: median survival time, dose: 64.0 mg/kg/injection, schedule: Q01DX001 (sc), vehicle: other",156 % of control
same,T/C,"endpoint: median survival time, dose: 128.0 mg/kg/injection, schedule: Q01DX001 (sc), vehicle: other",118 % of control
O=C1CCCC(c2ccccc2)c2ccccc21 (stereo not drawn),T/C,"endpoint: mean survival time, dose: 100.0 mg/kg/injection, schedule: Q01DX001 (ip), vehicle: saline",97 % of control
same,T/C,"endpoint: mean survival time, dose: 200.0 mg/kg/injection, schedule: Q01DX001 (ip), vehicle: saline",97 % of control
same,T/C,"endpoint: mean survival time, dose: 400.0 mg/kg/injection, schedule: Q01DX001 (ip), vehicle: saline",97 % of control
O=C(c1ccccc1)C12CC3CC1C2C3,T/C,"endpoint: mean survival time, dose: 100.0 mg/kg/injection, schedule: Q04DX003 (ip), vehicle: saline",97 % of control
same,T/C,"endpoint: mean survival time, dose: 200.0 mg/kg/injection, schedule: Q04DX003 (ip), vehicle: saline",100 % of control
same,T/C,"endpoint: mean survival time, dose: 400.0 mg/kg/injection, schedule: Q04DX003 (ip), vehicle: saline",89 % of control
